Experimental data taken from ChEMBL document CHEMBL4041474, “Design, synthesis and pharmacological evaluation of 4,5-diarylisoxazols bearing amino acid residues within the 3-amido motif as potent heat shock protein 90 (Hsp90) inhibitors” (Eur J Med Chem, 2017).
Activity calls are given as the source filed them. No cut-off for these calls is given here.

Experiments:
[1] = test system: NCI-H3122; assay: Antiproliferative activity against human NCI-H3122 cells after 72 hrs by SRB assay; assay type: functional, cell-based; settings: NCI-H3122, 72 h
[2] = molecular target: Heat shock protein HSP 90-alpha (Homo sapiens, UniProt P07900); assay: Inhibition of fluorescein isothiocyanate labeled geldanamycin binding to recombinant Hsp90alpha (unknown origin) after 1 hr by fluorescence polarization assay
[3] = test system: NCI-H3122; assay: Potency index, ratio of AUY922 IC50 to compound IC50 for human NCI-H3122 cells; assay type: functional
[4] = test system: NCI-N87; assay: Antiproliferative activity against human NCI-N87 cells after 72 hrs by SRB assay; assay type: functional, cell-based; settings: NCI-N87, 72 h
[5] = molecular target: T1, Heat shock protein HSP90 (Homo sapiens) (UniProt P07900+P08238); settings: 100 nM
Description: Inhibition of Hsp90 in human NCI-H3122 cells assessed as degradation of EML4-ALK fusion protein at 100 nM after 24 hrs by Western blot analysis

[6] = test system: U-87 MG; assay: Antiproliferative activity against human U87MG cells after 72 hrs by SRB assay; assay type: functional, cell-based, U-87MG ATCC
[7] = test system: BT-474; assay: Antiproliferative activity against human BT474 cells after 72 hrs by SRB assay; assay type: functional, cell-based; settings: BT-474, 72 h
[8] = test system: A549; assay: Antiproliferative activity against human A549 cells after 72 hrs by SRB assay; assay type: functional, cell-based; settings: A549, 72 h
[9] = test system: MDA-MB-231; assay: Antiproliferative activity against human MDA-MB-231 cells after 72 hrs by SRB assay; assay type: functional, cell-based; settings: MDA-MB-231, 72 h
[10] = test system: DU-145; assay: Antiproliferative activity against human DU145 cells after 72 hrs by SRB assay; assay type: functional, cell-based; settings: DU-145, 72 h
[11] = molecular target: T1, Heat shock protein HSP90 (Homo sapiens); settings: 11.1 to 100 nM
Description: Inhibition of Hsp90 in human NCI-H3122 cells assessed as upregulation of Hsp70 at 11.1 to 100 nM after 24 hrs by Western blot analysis

[12] = molecular target: T1, Heat shock protein HSP90 (Homo sapiens); settings: 11.1 to 100 nM; remark: listed apart in the source
Description: Inhibition of Hsp90 in human NCI-H3122 cells assessed as decrease in phosphorylation of AKT at Ser473 at 11.1 to 100 nM after 24 hrs by Western blot analysis

[13] = test system: HCT-116; assay: Antiproliferative activity against human HCT116 cells after 72 hrs by SRB assay; assay type: functional, cell-based; settings: HCT-116, 72 h
[14] = test system: NCI-H460; assay: Antiproliferative activity against human NCI-H460 cells after 72 hrs by SRB assay; assay type: functional, cell-based; settings: NCI-H460, 72 h
[15] = molecular target: T1, Heat shock protein HSP90 (Homo sapiens); settings: 11.1 to 100 nM; remark: listed apart in the source
Description: Inhibition of Hsp90 in human NCI-H3122 cells assessed as decrease in phosphorylation of ERK1/2 at 11.1 to 100 nM after 24 hrs by Western blot analysis

Compound	IC50 [1]	IC50 [2]	also measured
COC(=O)[C@H](NC(=O)[C@H](NC(=O)C(NC(=O)c1noc(-c2cc(C(C)C)c(O)cc2O)c1-c1ccc(CN2CCOCC2)cc1)C(C)C)C(C)C)C(C)C (single isomer, unassigned)	34 nM	259 nM	–
COC(=O)[C@@H](CC1CCCCC1)NC(=O)c1noc(-c2cc(C(C)C)c(O)cc2O)c1-c1ccc(CN2CCOCC2)cc1	> 10000 nM	836 nM	–
CCNC(=O)c1noc(-c2cc(C(C)C)c(O)cc2O)c1-c1ccc(CN2CCOCC2)cc1 [LUMINESPIB]	14 nM	–	–
COC(=O)[C@@H](Cc1ccccc1)NC(=O)[C@H](NC(=O)c1noc(-c2cc(C(C)C)c(O)cc2O)c1-c1ccc(CN2CCOCC2)cc1)C(C)C	79 nM	397 nM	–
COC(=O)[C@@H](Cc1ccccc1)NC(=O)COCCOCCNC(=O)c1noc(-c2cc(C(C)C)c(O)cc2O)c1-c1ccc(CN2CCOCC2)cc1	1530 nM	> 1000 nM	–
COC(=O)[C@@H](CC(C)C)NC(=O)[C@H](NC(=O)c1noc(-c2cc(C(C)C)c(O)cc2O)c1-c1ccc(CN2CCOCC2)cc1)C(C)C	> 10000 nM	285 nM	–
COC(=O)[C@@H](Cc1c[nH]c2ccccc12)NC(=O)c1noc(-c2cc(C(C)C)c(O)cc2O)c1-c1ccc(CN2CCOCC2)cc1	149 nM	368 nM	–
COC(=O)[C@H](NC(=O)c1cnc(N2CCC(CNC(=O)c3noc(-c4cc(C(C)C)c(O)cc4O)c3-c3ccc(CN4CCOCC4)cc3)CC2)nc1)C(C)C	278 nM	407 nM	–
CCNC(=O)[C@H](NC(=O)c1noc(-c2cc(C(C)C)c(O)cc2O)c1-c1ccc(CN2CCOCC2)cc1)C(C)C	34 nM	28 nM	–
CC(C)c1cc(-c2onc(C(=O)N[C@@H](C(=O)N3CC(F)(F)C3)C(C)C)c2-c2ccc(CN3CCOCC3)cc2)c(O)cc1O	37 nM	39 nM	–
COC(=O)[C@@H](Cc1ccccc1)NC(=O)COCCOCCOCCNC(=O)c1noc(-c2cc(C(C)C)c(O)cc2O)c1-c1ccc(CN2CCOCC2)cc1	40 nM	122 nM	–
COC(=O)[C@@H](CO)NC(=O)c1noc(-c2cc(C(C)C)c(O)cc2O)c1-c1ccc(CN2CCOCC2)cc1	227 nM	72 nM	–
COC(=O)[C@@H](Cc1ccccc1)NC(=O)c1cnc(N2CCN(C(=O)c3noc(-c4cc(C(C)C)c(O)cc4O)c3-c3ccc(CN4CCOCC4)cc3)CC2)nc1	164 nM	> 1000 nM	–
COC(=O)[C@H](NC(=O)[C@H](NC(=O)[C@H](NC(=O)[C@H](NC(=O)c1noc(-c2cc(C(C)C)c(O)cc2O)c1-c1ccc(CN2CCOCC2)cc1)C(C)C)C(C)C)C(C)C)C(C)C	638 nM	528 nM	–
CC(C)c1cc(-c2onc(C(=O)N[C@@H](C(=O)NCCN3CCOCC3)C(C)C)c2-c2ccc(CN3CCOCC3)cc2)c(O)cc1O	139 nM	206 nM	–
COC(=O)[C@H](NC(=O)[C@H](NC(=O)c1noc(-c2cc(C(C)C)c(O)cc2O)c1-c1ccc(CN2CCOCC2)cc1)C(C)C)C(C)C	> 10000 nM	206 nM	–

Compound	IC50 [1]	IC50 [2]	also measured
CNC(=O)[C@H](NC(=O)c1noc(-c2cc(C(C)C)c(O)cc2O)c1-c1ccc(CN2CCOCC2)cc1)C(C)C	39 nM	21 nM	–
COC(=O)[C@H](CCCCNC(=O)OCc1ccccc1)NC(=O)c1noc(-c2cc(C(C)C)c(O)cc2O)c1-c1ccc(CN2CCOCC2)cc1	4470 nM	514 nM	–
COC(=O)[C@@H](CC(C)C)NC(=O)c1noc(-c2cc(C(C)C)c(O)cc2O)c1-c1ccc(CN2CCOCC2)cc1	19 nM	151 nM	–
COC(=O)[C@@H](Cc1ccccc1)NC(=O)CCCCCNC(=O)c1noc(-c2cc(C(C)C)c(O)cc2O)c1-c1ccc(CN2CCOCC2)cc1	90 nM	307 nM	–
CC(C)c1cc(-c2onc(C(=O)N[C@@H](C(=O)NC3(CO)CC3)C(C)C)c2-c2ccc(CN3CCOCC3)cc2)c(O)cc1O	81 nM	106 nM	–
COC(=O)[C@H](NC(=O)c1noc(-c2cc(C(C)C)c(O)cc2O)c1-c1ccc(CN2CCOCC2)cc1)C(C)C	28 nM	79 nM	–
CCOC(=O)[C@H](NC(=O)c1noc(-c2cc(C(C)C)c(O)cc2O)c1-c1ccc(CN2CCOCC2)cc1)C(C)C	2 nM	189 nM	Ratio IC50 [3]: 10
CC(C)c1cc(-c2onc(C(=O)N[C@@H](C(=O)N3CCN(C)CC3)C(C)C)c2-c2ccc(CN3CCOCC3)cc2)c(O)cc1O	149 nM	429 nM	–
COC(=O)[C@@H](Cc1ccccc1)NC(=O)c1noc(-c2cc(C(C)C)c(O)cc2O)c1-c1ccc(CN2CCOCC2)cc1	77 nM	260 nM	–
CC(C)c1cc(-c2onc(C(=O)N[C@@H](C(=O)OC(C)(C)C)C(C)C)c2-c2ccc(CN3CCOCC3)cc2)c(O)cc1O	< 1 nM	112 nM	–
COC(=O)[C@H](NC(=O)COCCOCCNC(=O)c1noc(-c2cc(C(C)C)c(O)cc2O)c1-c1ccc(CN2CCOCC2)cc1)C(C)C	90 nM	154 nM	–
COC(=O)[C@@H](Cc1ccccc1)NC(=O)c1cnc(N2CCC(CNC(=O)c3noc(-c4cc(C(C)C)c(O)cc4O)c3-c3ccc(CN4CCOCC4)cc3)CC2)nc1	1130 nM	749 nM	–
COC(=O)[C@H](NC(=O)COCCOCCOCCNC(=O)c1noc(-c2cc(C(C)C)c(O)cc2O)c1-c1ccc(CN2CCOCC2)cc1)C(C)C	42 nM	14 nM	IC50 [4]: 564 nM; inhibition [5]: Active; IC50 [6]: 109 nM; IC50 [7]: 57 nM; IC50 [8]: 351 nM; IC50 [9]: 130 nM; IC50 [10]: 239 nM; inhibition [11]: Active; inhibition [12]: Active; IC50 [13]: 116 nM; IC50 [14]: 247 nM; inhibition [15]: Active
COC(=O)[C@H](NC(=O)CCCCCNC(=O)c1noc(-c2cc(C(C)C)c(O)cc2O)c1-c1ccc(CN2CCOCC2)cc1)C(C)C	65 nM	98 nM	–
COC(=O)[C@H](NC(=O)c1cnc(N2CCN(C(=O)c3noc(-c4cc(C(C)C)c(O)cc4O)c3-c3ccc(CN4CCOCC4)cc3)CC2)nc1)C(C)C	135 nM	473 nM	–
